According to patent US6737383B1, “Herbicidal oxadiazolidines” (priority 1999, dated 2004):

Assays:
[1] = system: pigweed; experiment: Test B pre/postemergence pigweed; assay type: in vivo, Amaranthus retroflexus; details: for Redroot pigweed plant response rating: scale of 0 to 10 where 0 is no effect and 10 is complete control
Method in brief: (§1)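 Herbicidal effect was estimated by eye on a ten-point control scale after plants spent twelve to sixteen days in a greenhouse following soil or foliar treatment. Foliar sprays targeted plants at one to four leaves; all doses were formulated in a non-phytotoxic solvent with surfactant.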

[2] = system: smallflower flatsedge; experiment: Test B flood test smallflower flatsedge; assay type: in vivo, Cyperus difformis; details: Pre-emergence
Method in brief: (§2)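 Plants were grown to the 2-leaf stage before treatment with test chemical, then held in a greenhouse for twelve to sixteen days. Injury was visually rated against untreated controls on a 0–10 scale, where 0 is no effect and 10 is complete control.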

[3] = system: purple nutsedge; experiment: Test B pre/postemergence purple nutsedge; assay type: in vivo, Cyperus rotundus; details: for Nutsedge plant response rating: scale of 0 to 10 where 0 is no effect and 10 is complete control
Method in brief: as §1

[4] = system: velvetleaf; experiment: Test B pre/postemergence velvetleaf; assay type: in vivo, Abutilon theophrasti; details: for Velvetleaf plant response rating: scale of 0 to 10 where 0 is no effect and 10 is complete control
Method in brief: as §1

[5] = system: wild oat; experiment: Test B pre/postemergence wild oat; assay type: in vivo, Avena fatua; details: for Wild oats plant response rating: scale of 0 to 10 where 0 is no effect and 10 is complete control
Method in brief: as §1

[6] = system: rape; experiment: Test B pre/postemergence rape; assay type: in vivo, Brassica napus; details: for Rape plant response rating: scale of 0 to 10 where 0 is no effect and 10 is complete control
Method in brief: as §1

[7] = system: bamyardgrass; experiment: Test B flood test barnyardgrass; assay type: in vivo, Echinochloa crus-galli; details: Pre-emergence
Method in brief: as §2

[8] = system: sugar beet; experiment: Test B pre/postemergence sugar beet; assay type: in vivo, Beta vulgaris; details: for Sugarbeets plant response rating: scale of 0 to 10 where 0 is no effect and 10 is complete control
Method in brief: as §1

[9] = system: soybean; experiment: Test B pre/postemergence soybean; assay type: in vivo, Glycine max; details: for Soybean plant response rating: scale of 0 to 10 where 0 is no effect and 10 is complete control
Method in brief: as §1

[10] = system: bedstraw; experiment: Test B pre/postemergence bedstraw; assay type: in vivo, Galium aparine
Method in brief: as §1

[11] = system: crabgrass; experiment: Test B pre/postemergence crabgrass; assay type: in vivo, Digitaria sanguinalis; details: for Crabgrass plant response rating: scale of 0 to 10 where 0 is no effect and 10 is complete control
Method in brief: as §1

[12] = system: surinam grass; experiment: Test B pre/postemergence surinam grass; assay type: in vivo, Brachiaria decumbens
Method in brief: as §1

[13] = system: cocklebur; experiment: Test B pre/postemergence cocklebur; assay type: in vivo, Xanthium strumarium; details: for Cocklebur plant response rating: scale of 0 to 10 where 0 is no effect and 10 is complete control
Method in brief: as §1

[14] = system: wheat; experiment: Test B pre/postemergence wheat; assay type: in vivo, Triticum aestivum; details: for Wheat plant response rating: scale of 0 to 10 where 0 is no effect and 10 is complete control
Method in brief: as §1

[15] = system: corn; experiment: Test B pre/postemergence corn; assay type: in vivo, Zea mays; details: for Corn plant response rating: scale of 0 to 10 where 0 is no effect and 10 is complete control
Method in brief: as §1

[16] = system: blackgrass; experiment: Test B pre/postemergence blackgrass; assay type: in vivo, Alopecurus myosuroides
Method in brief: as §1

[17] = Postemergence, Rate 125 g/ha, scale 0 to 10, 0 is no effect, 10 is complete control
[18] = Preemergence, Rate 62 g/ha, scale 0 to 10 (0 no effect, 10 complete control)
[19] = Rate 500 g/ha, Postemergence, scale 0 to 10, 0 no effect, 10 complete control
[20] = Rate 62 g/ha, flood test species, visual evaluation after twelve to sixteen days
[21] = Rate 125 g/ha, flood test species, scale 0 to 10 where 0 is no effect and 10 is complete control
[22] = Rate 250 g/ha, flood-test species, scale 0 to 10, 0 is no effect, 10 is complete control
[23] = Rate 500 g/ha, flood test species, scale 0 to 10 (0 no effect, 10 complete control)
[24] = Preemergence, Rate 500 g/ha, scale of 0 to 10 where 0 is no effect and 10 is complete control
[25] = Rate 62 g/ha, Postemergence, scale of 0 to 10 where 0 is no effect and 10 is complete control
[26] = Rate 250 g/ha, Postemergence, scale of 0 to 10 where 0 is no effect and 10 is complete control
[27] = Preemergence, Rate 250 g/ha, scale of 0 to 10 where 0 is no effect and 10 is complete control

CC(C)N(C(=O)n1oc(=O)n(C2CCCCCC2)c1=O)c1ccccc1 [Compound 341]
1: Plant response rating, S. Flatsedge (0 to 10 scale, 0 is no effect, 10 is complete control) [2, 20] | Soybean plant response rating ([9]; Rate 62 g/ha, Postemergence)
8: Redroot pigweed plant response rating ([1]; Preemergence, Rate 500 g/ha) | Barnyardgrass plant response rating [7, 21] | Plant response rating, Bedstraw [10, 19] | Crabgrass plant response rating ([11]; Preemergence, Rate 500 g/ha)
3: Plant response rating, Wild oats [5, 19] | Plant response rating, Soybean [9, 19]
9: S. Flatsedge plant response rating [2, 22] | S. Flatsedge plant response rating [2, 23] | Barnyardgrass plant response rating [7, 22] | Barnyardgrass plant response rating [7, 23]
7: Blackgrass plant response rating [16, 24]
4: S. Flatsedge plant response rating [2, 21] | Plant response rating, Bedstraw [10, 26]
0: Plant response rating, Redroot pigweed [1, 17] | Plant response rating, Redroot pigweed [1, 18] | Redroot pigweed plant response rating (0 to 10 scale) ([1]; Preemergence, Rate 125 g/ha) | Redroot pigweed plant response rating ([1]; Preemergence, Rate 250 g/ha) | Redroot pigweed plant response rating ([1]; Rate 62 g/ha, Postemergence) | Plant response rating, Nutsedge [3, 17] | Plant response rating, Nutsedge [3, 18] | Nutsedge plant response rating (0 to 10 scale) ([3]; Preemergence, Rate 125 g/ha) | Nutsedge plant response rating ([3]; Preemergence, Rate 250 g/ha) | Nutsedge plant response rating ([3]; Preemergence, Rate 500 g/ha) | Nutsedge plant response rating ([3]; Rate 62 g/ha, Postemergence) | Plant response rating, Nutsedge [3, 19] | Plant response rating, Velvetleaf [4, 17] | Plant response rating, Velvetleaf [4, 18] | Velvetleaf plant response rating (0 to 10 scale) ([4]; Preemergence, Rate 125 g/ha) | Velvetleaf plant response rating ([4]; Preemergence, Rate 250 g/ha) | Velvetleaf plant response rating ([4]; Rate 62 g/ha, Postemergence) | Plant response rating, Wild oats [5, 17] | Plant response rating, Wild oats [5, 18] | Wild oats plant response rating (0 to 10 scale) ([5]; Preemergence, Rate 125 g/ha) | Wild oats plant response rating ([5]; Preemergence, Rate 250 g/ha) | Wild oats plant response rating ([5]; Rate 62 g/ha, Postemergence) | Plant response rating, Rape [6, 17] | Plant response rating, Rape [6, 18] | Rape plant response rating (0 to 10 scale) ([6]; Preemergence, Rate 125 g/ha) | Rape plant response rating ([6]; Preemergence, Rate 250 g/ha) | Rape plant response rating ([6]; Preemergence, Rate 500 g/ha) | Rape plant response rating ([6]; Rate 62 g/ha, Postemergence) | Plant response rating, Sugarbeets [8, 17] | Plant response rating, Sugarbeets [8, 18] | Sugarbeets plant response rating (0 to 10 scale) ([8]; Preemergence, Rate 125 g/ha) | Sugarbeets plant response rating ([8]; Preemergence, Rate 250 g/ha) | Sugarbeets plant response rating ([8]; Preemergence, Rate 500 g/ha) | Sugarbeets plant response rating ([8]; Rate 62 g/ha, Postemergence) | Plant response rating, Sugarbeets [8, 19] | Plant response rating, Soybean [9, 18] | Soybean plant response rating (0 to 10 scale) ([9]; Preemergence, Rate 125 g/ha) | Soybean plant response rating ([9]; Preemergence, Rate 250 g/ha) | Soybean plant response rating ([9]; Preemergence, Rate 500 g/ha) | Plant response rating, Bedstraw [10, 17] | Plant response rating, Bedstraw [10, 18] | Bedstraw plant response rating (0 to 10 scale) ([10]; Preemergence, Rate 125 g/ha) | Bedstraw plant response rating [10, 25] | Plant response rating, Crabgrass [11, 17] | Crabgrass plant response rating ([11]; Rate 62 g/ha, Postemergence) | Plant response rating, B. signalgrass [12, 17] | Plant response rating, B. signalgrass [12, 18] | B. signalgrass plant response rating (0 to 10 scale, 0 is no effect, 10 is complete control) ([12]; Preemergence, Rate 125 g/ha) | B. signalgrass plant response rating [12, 27] | B. signalgrass plant response rating [12, 24] | B. signalgrass plant response rating [12, 25] | Plant response rating, B. signalgrass [12, 26] | Plant response rating, Cocklebur [13, 17] | Plant response rating, Cocklebur [13, 18] | Cocklebur plant response rating (0 to 10 scale) ([13]; Preemergence, Rate 125 g/ha) | Cocklebur plant response rating ([13]; Preemergence, Rate 250 g/ha) | Cocklebur plant response rating ([13]; Preemergence, Rate 500 g/ha) | Cocklebur plant response rating ([13]; Rate 62 g/ha, Postemergence) | Plant response rating, Wheat [14, 17] | Plant response rating, Wheat [14, 18] | Wheat plant response rating (0 to 10 scale) ([14]; Preemergence, Rate 125 g/ha) | Wheat plant response rating ([14]; Preemergence, Rate 250 g/ha) | Wheat plant response rating ([14]; Preemergence, Rate 500 g/ha) | Wheat plant response rating ([14]; Rate 62 g/ha, Postemergence) | Plant response rating, Wheat [14, 19] | Plant response rating, Corn [15, 17] | Plant response rating, Corn [15, 18] | Corn plant response rating (0 to 10 scale) ([15]; Preemergence, Rate 125 g/ha) | Corn plant response rating ([15]; Preemergence, Rate 250 g/ha) | Corn plant response rating ([15]; Preemergence, Rate 500 g/ha) | Corn plant response rating ([15]; Rate 62 g/ha, Postemergence) | Plant response rating, Corn [15, 19] | Plant response rating, Blackgrass [16, 17] | Plant response rating, Blackgrass [16, 18] | Blackgrass plant response rating [16, 25]
2: Velvetleaf plant response rating ([4]; Preemergence, Rate 500 g/ha) | Plant response rating, Velvetleaf [4, 19] | Wild oats plant response rating ([5]; Preemergence, Rate 500 g/ha) | Plant response rating, Rape [6, 19] | Plant response rating, Barnyardgrass (0 to 10 scale, 0 is no effect, 10 is complete control) [7, 20] | Plant response rating, Soybean [9, 17] | Bedstraw plant response rating [10, 24] | Plant response rating, Crabgrass [11, 18] | Crabgrass plant response rating (0 to 10 scale) ([11]; Preemergence, Rate 125 g/ha) | Crabgrass plant response rating ([11]; Preemergence, Rate 250 g/ha) | Plant response rating, Crabgrass [11, 19] | Plant response rating, B. signalgrass [12, 19] | Blackgrass plant response rating (0 to 10 scale) ([16]; Preemergence, Rate 125 g/ha) | Plant response rating, Blackgrass [16, 26] | Plant response rating, Blackgrass [16, 19]
6: Plant response rating, Redroot pigweed [1, 19] | Blackgrass plant response rating [16, 27]
